Earlier results as cited in PMC3449305 (Bioorganic & medicinal chemistry, 2011).

Assays:
CNS = settings: rodents
[1] = rats

blood-brain barrier penetration [1] | SMILES | CNS effect in BOLD imaging (CNS)
 | C[C@@H](NC(=O)[C@@H](CC(=O)N1CCC(N2CCCCC2)CC1)N1C(=O)[C@@H](N2C(=O)OC[C@@H]2c2ccccc2)[C@H]1/C=C/c1cccc(I)c1)c1ccccc1 [Compound 11a, (R)-4-([1,4′-Bipiperidin]-1′-yl)-2-((2R,3S)-2-((E)-3-iodostyryl)-4-oxo-3-((S)-2-oxo-4-phenyloxazolidin-3-yl)azetidin-1-yl)-4-oxo-N-((R)-1-phenylethyl)butanamide] | CNS modulatory effect
crosses the blood–brain barrier | CC(NC(=O)C(CC(=O)N1CCC(N2CCCCC2)CC1)N1C(=O)C(N2C(=O)OCC2c2ccccc2)C1C=Cc1ccccc1)c1ccccc1 (centres unmarked) [SRX246] | 
